Laboratory results published in patent publication US5612373A, “Certain diacyl hydrazine derivatives” (Zeneca Limited, priority 1993, dated 1997).

What was measured:
[1] = biological target: T1, ADP stimulated platelet aggregation in human, citrated, platelet-rich plasma (Homo sapiens, UniProt P05106+P08514); experiment: test (a): inhibition of ADP stimulated platelet aggregation (Born); format: cell-based; conditions: ADP-induced aggregation, read-out: pA2 (potency of platelet aggregation inhibition) (converted)
T1 construct: aggregating human, citrated, platelet-rich plasma; endogenous in cells; host or cells: human platelets in citrated platelet-rich plasma
T1 sequence (P08514 32-887 limits assumed): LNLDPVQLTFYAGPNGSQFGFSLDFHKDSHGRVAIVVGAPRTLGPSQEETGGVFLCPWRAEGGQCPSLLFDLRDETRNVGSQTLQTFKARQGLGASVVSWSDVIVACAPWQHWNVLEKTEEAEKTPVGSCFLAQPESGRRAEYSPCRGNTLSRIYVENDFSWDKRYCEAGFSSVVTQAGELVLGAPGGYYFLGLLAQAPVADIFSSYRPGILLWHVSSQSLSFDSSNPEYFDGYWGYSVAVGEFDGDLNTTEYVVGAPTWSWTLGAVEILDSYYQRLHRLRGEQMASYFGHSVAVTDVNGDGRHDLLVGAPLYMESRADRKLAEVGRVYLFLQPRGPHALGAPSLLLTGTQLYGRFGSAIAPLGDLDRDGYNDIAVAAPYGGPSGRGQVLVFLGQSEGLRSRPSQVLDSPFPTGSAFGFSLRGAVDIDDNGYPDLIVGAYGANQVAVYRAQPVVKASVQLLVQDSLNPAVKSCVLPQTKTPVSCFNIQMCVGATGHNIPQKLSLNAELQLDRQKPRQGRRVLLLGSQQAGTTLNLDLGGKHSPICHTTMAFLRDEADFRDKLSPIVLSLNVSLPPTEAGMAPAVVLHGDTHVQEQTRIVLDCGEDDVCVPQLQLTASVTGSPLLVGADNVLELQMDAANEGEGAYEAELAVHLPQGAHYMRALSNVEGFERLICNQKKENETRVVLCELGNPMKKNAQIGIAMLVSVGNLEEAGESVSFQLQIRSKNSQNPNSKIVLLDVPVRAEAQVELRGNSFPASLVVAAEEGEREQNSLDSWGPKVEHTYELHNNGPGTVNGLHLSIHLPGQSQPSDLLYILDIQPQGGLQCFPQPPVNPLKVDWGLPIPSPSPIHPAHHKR
T1 sequence (P08514 891-1039 limits assumed): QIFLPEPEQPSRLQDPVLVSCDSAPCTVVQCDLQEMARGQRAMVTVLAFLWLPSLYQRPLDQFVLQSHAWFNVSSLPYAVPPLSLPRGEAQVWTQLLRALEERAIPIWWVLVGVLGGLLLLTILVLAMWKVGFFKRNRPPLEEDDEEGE
T1 sequence (P05106 27-788): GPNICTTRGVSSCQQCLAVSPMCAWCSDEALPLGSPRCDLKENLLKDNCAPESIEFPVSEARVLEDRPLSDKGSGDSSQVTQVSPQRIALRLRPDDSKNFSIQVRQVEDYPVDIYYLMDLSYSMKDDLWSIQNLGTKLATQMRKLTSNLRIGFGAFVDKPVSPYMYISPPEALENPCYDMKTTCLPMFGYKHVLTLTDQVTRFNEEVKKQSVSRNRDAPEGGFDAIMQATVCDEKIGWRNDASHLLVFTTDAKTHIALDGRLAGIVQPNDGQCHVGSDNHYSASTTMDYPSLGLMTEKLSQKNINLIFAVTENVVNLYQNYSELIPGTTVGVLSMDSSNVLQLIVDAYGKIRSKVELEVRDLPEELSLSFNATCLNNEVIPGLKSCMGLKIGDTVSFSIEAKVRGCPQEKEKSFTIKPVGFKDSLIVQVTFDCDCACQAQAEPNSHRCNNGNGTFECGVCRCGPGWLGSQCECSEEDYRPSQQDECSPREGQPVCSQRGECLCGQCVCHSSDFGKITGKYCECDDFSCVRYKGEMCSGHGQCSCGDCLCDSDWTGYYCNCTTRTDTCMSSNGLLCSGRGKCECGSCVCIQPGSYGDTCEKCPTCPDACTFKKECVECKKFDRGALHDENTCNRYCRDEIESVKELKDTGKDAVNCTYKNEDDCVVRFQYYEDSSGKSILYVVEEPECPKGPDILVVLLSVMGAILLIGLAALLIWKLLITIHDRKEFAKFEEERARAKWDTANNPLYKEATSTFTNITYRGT
Source text: (i) aggregating human, citrated, platelet-rich plasma by addition of adenosine diphosphate (ADP) so as to generate a dose-response curve;
(ii) generating a dose-response curve for ADP stimulated platelet aggregation in the presence of increasing amounts of a test compound (generally in the range 10^-5 M to 10^-10 M); and
(iii) calculating a pA2 value indicating potency of platelet aggregation inhibition for the test compound, averaged over several concentrations, from the calculated 50% response value for ADP aggregation in the presence and absence of the test compound.

platelet aggregation = experiment: test (a) modified: activity after oral dosing to dogs; format: in vivo; conditions: dosed orally to dogs at 3 mg/kg
Method: Test (a) may be modified so as to assess the effects of a test compound ex vivo on the aggregation of human blood platelets after administration of the test compound to a laboratory animal, such as a rat, rabbit, guinea pig, mouse or dog. For example, groups of fourmale, fasted Alderley Park Wistar rats are orally dosed with a test compound or appropriate vehicle, and at suitable time intervals (1, 3, 5 and 8 hours after dosing) animals are anaesthetised with fluothane and bled by heart puncture. Blood is collected into 3.2% citrate (1 part to 9 parts whole blood) and platelet poor plasma (ppp) prepared by centrifugation (4500×g for 10 minutes). […]
Equal volumes (125 μl ) of rat ppp and human prp are mixed together, ADP added, and the whole incubated (37° C.) and stirred (900 rpm) in a BioData platelet aggregometer. Aggregation is induced with ADP and agonist EC50 values calculated for human prp/rat ppp mixtures from animals dosed with test compound or vehicle. A mean concentration ratio (concentration of ADP required to cause a 50% aggregation response in human prp/rat ppp mixtures from animals dosed with antagonist, divided by the concentration of ADP to cause 50% aggregation in human prp/rat ppp mixtures from animals dosed with vehicle) is calculated at each time point. […]

[2] = biological target: T2, purified human platelet fibrinogen receptor (GPIIb/IIIa) (Homo sapiens, UniProt P05106+P08514); experiment: test (b): GPIIb/IIIa ELISA, inhibition of biotinylated fibrinogen binding; conditions: biotinylated fibrinogen 10 nM, read-out: pIC50 (-log(IC50)), 50% inhibition of biotinylated fibrinogen binding (converted)
T2 construct: Glycoprotein IIb/IIIa is isolated from human platelet lysates; from tissue
T2 sequence (P08514 32-887 limits assumed): as the sequence (P08514 32-887 limits assumed) above
T2 sequence (P08514 891-1039 limits assumed): as the sequence (P08514 891-1039 limits assumed) above
T2 sequence (P05106 27-788): as the sequence (P05106 27-788) above
Method: (i) Preparation of human platelet lysates.
Platelet rich plasma (prp) is harvested by centrifugation (1000 rpm, 15 minutes) of whole blood anticoagulated with acid citrate dextrose (trisodium citrate 85 mM, citric acid 70 mM, d-glucose 110 mM), 1 part to 6 parts blood. Prostacyclin (PGI2, 1 μM) is added to the prp before centrifugation (2400 rpm, 15 min) and the resulting pellet is resuspended in modified Tyrodes' solution (NaCl 130 mM, KCl 26 mM, NaHCO3 12 mM, NaH2 PO4 0.5 mM, MgCl2 1 mM, CaCl2 20 mM, Glucose 12 mM, HEPES 5 mM) containing bovine serum albumin 3.5 g/L, PGI2 1 μM and hirudin 0.5 U/ml. The platelet suspension is centrifuged (2400 rpm, 15 minutes) and the resultant pellet resuspended in 500 μl of lysis buffer (octyl glucoside 50 mM, HEPES 10 mM, NaCl 150 mM, CaCl2 1 mM, MgCl2 1 mM, PMSF 1 mM, NEM 10 mM, leupeptin 0.1 mM), agitated at 4° C. for 15 minutes then centrifuged at 24000 rpm, 15 minutes. The supernatant is stored at 4° C. and the pellet re-suspended in 500 μl of lysis buffer. […]
96 well microtitre plates are coated with 100 μl purified human platelet fibrinogen receptor (GPIIb/IIIa) diluted in coating buffer (Tris-HCl 20 mM, NaCl 150 mM, CaCl2 1 mM, pH7.4) and left overnight at 4° C. […] Colour is allowed to develop for 10-15 minutes before optical densities are read at 650 nm. […]

Kb [1] [nM] | IC50 [2] [nM] | SMILES | duration of activity after oral dosing (platelet aggregation)
200 | 1120 | COC(=O)COc1ccc(C(=O)NNC(=O)c2ccc(C(=N)N)cc2)cc1 [Example 12, Methyl 4-[3-(4-amidinobenzoyl)carbazoyl]phenoxyacetate] | up to 24 hours
7.94 | 15.8 | N=C(N)c1ccc(C(=O)NNC(=O)c2ccc(OCC(=O)O)cc2)cc1 [Example 13, 4-[3-(4-Amidinobenzoyl)carbazoyl]phenoxyacetic acid] | –
